According to patent publication US10495642B2, “Inhibitors of proteins specific for the secretome of a chondrocyte for use in the treatment of breast cancer metastasis” (ALBERT-LUDWIGS-UNIVERSITÄT FREIBURG, priority 2013, dated 2019):

Tests used:
[1] = system: human pancreatic cancer, malignant melanoma, papillary thyroid cancer, breast cancer, colon cancer, and prostate cancer cells; details: human cancer cells with high basal TLR3 and Wnt5a; cited from earlier work
[2] = system: 4T1 cells; details: cited from earlier work
[3] = system: MCF-7 and MDA-MB-231 as well as 4T1 cancer cell lines; details: addition of CXCL5, cited from earlier work
[4] = system: MDA-MB-231 cells; assay: Transwell migration of MDA-MB-231 cells towards chondrocyte conditioned media; assay type: cell-based, human; details: chondrocyte conditioned media as chemoattractant
Method: Cell differentiation: Primary human monocytes, articular chondrocytes, and adipose tissue derived stromal cells were isolated from healthy donors and differentiated into osteoclasts (OC), articular chondrocytes (AC) and osteoblasts (OB) respectively. Cell lines: MDA-MB-231 (MDA), a metastatic, and MCF7A, an epithelial like breast cancer cell line, were used in this study.
Serum free conditioned media: After differentiation, cells were washed 2 times with PBS and incubated with DMEM for 24 hours. After 24 hours, conditioned media was harvested and passed through a 0.45 μm filter.
Migration: MDA-MB-231 cells were serum-starved for 24 hours before testing of the migration. Migration media was plated in the bottom of the well and a transwell insert (8 μm pores) was placed on top. 25.000 cells were seed on top of the filter. After 15 hours, the filters were washed and non-migrated cells were removed. Migrated cells were stained with H&E and counted under a microscope. Numbers were obtained as the average number of 5 random fields per filter.

[5] = target: T1, recombinant human CXCL5/ENA-78 (Homo sapiens, UniProt P42830); assay: Phage display identification of CXCL5 binding peptides; details: region of CXCL5 of FIGS. 7 and 8
T1 sequence (P42830 37-114): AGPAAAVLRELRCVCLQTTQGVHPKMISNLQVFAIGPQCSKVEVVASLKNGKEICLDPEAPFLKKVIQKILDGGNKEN
Description: Phage display: 12 amino acid binding peptides towards CXCL5 were identified using a commercial phage display system from […].

For `Cn1c(-c2ccccc2)c[nH]c1=S` [Peptide C10, 5-phenylmethimazole], which “cell growth and migration” value [1] is on record?
The value was “suppression of cell growth and migration”.

Which “tumor nodules in livers, lungs and intestines versus control group” value ([2]; 4T1 mouse model) does the source give for “CXCL5: small cytokine of the CXC chemokine family, epithelial-derived neutrophil-activating peptide 78” here?
The value was “more numerous and larger”.

What about the “metastasis of 4T1 cells in mice” value ([2]; CXCL5 0.5 mg/kg) of the same molecule?
Its value is “increased the metastasis”.

What about the migration and invasiveness ([3]; MCF-7, MDA-MB-231 and 4T1 cancer cell lines) of the same molecule?
Its migration and invasiveness is “enhance the migration and invasiveness”.

And the cell proliferation ([3]; MCF-7 or MDA-MB-231 cancer cells)?
Its cell proliferation is “did not increase cell proliferation”.

For H-IGKVDSNSVSHA-NH2 [Peptide 2], which “migration of MDA-MB-231 cells in the presence of the chondrocyte secretome” value [4] is on record?
The value was “reduces migration”.

And the “binding to the pocket region of CXCL5” value [5]?
Its value is “bind to said region”.

For “H-Pro-Val-Trp-Ala-his-leu-Asn-Pro-Pro-Trp-Leu-Ala-NH2 [Peptide 1]”, which “migration of MDA-MB-231 cells in the presence of the chondrocyte secretome” value [4] is on record?
The value was “reduces migration”.

What about the “binding to the pocket region of CXCL5” value [5] of the same molecule?
Its value is “bind to said region”.
